Measurements published in US10793531B2, “Triazole derivatives and their use as PDE4 activators” (MIRONID LIMITED, priority 2015, dated 2020).

What was measured:
full-length human PDE4D5 = molecular target: T1, full-length human PDE4D5 (Homo sapiens, UniProt Q08499); experiment: PDE4 radio-assay, PDE4D5 long form activation (Experiment 1); assay type: biochemical; settings: n ≥ 2, read-out: PDE4D5 activity (mean % increase in counts over basal activity without added compound); for activation at 50 µM: 50 μM compound; for activation at 1 µM: 1 μM compound; for activation at 3 µM: 3 μM compound; for activation at 10 µM: 10 μM compound; for activation at 30 µM: 30 μM compound
T1 construct: stably expressed the full-length human PDE4D5, PDE4A4 and PDE4B1 long isoforms; made in house; cytosol fraction of the lysate
Description: (§1) One suitable method of detecting whether or not a compound is capable of serving as an activator of a PDE4 long form is using a two-step radio-assay procedure described in Experiment 1. In summary, the method involves incubating a PDE4 long form with a test small molecule activator, together with [^3H]-labelled cAMP to assess alterations in the breakdown of cAMP to the 5′-adenosine monophosphate (5′-AMP) product. A sample of the reaction mixture from such an incubation is subsequently treated with snake venom 5′-nucleotidase to allow conversion of the nucleotide [^3H]-labelled 5′-AMP to the uncharged nucleoside [^3H]-labelled adenosine, which can be separated and quantified to assess PDE4 activity and the effect of the test compound (Thompson, W. J. and Appleman, M. M. Biochemistry 10: 311-316, 1971, with some modifications as described in: Marchmont, R. J. and Houslay, M. D. Biochem J. 187: 381-92, 1980).
(§2) HEK 293 cells were transfected with pDEST™ PDE4 expression vectors using Lipofectamine LTX/Plus reagent (Invitrogen) as outlined by the manufacturer and clonal isolates expanded to obtain cell lines that stably expressed the full-length human PDE4D5, PDE4A4 and PDE4B1 long isoforms and the full length human PDE4B2 short isoform. These were called the HEK-PDE4D5, HEK-PDE4A4, HEK-PDE4B1 and HEK-PDE4B2 cell lines, respectively.
(§3) HEK-PDE4D5 cells were seeded out in 100 mm plates and incubated at 37° C. in an atmosphere of 5% CO2, 95% air. Cell lysates were prepared using KHEM buffer [50 mM KCl, 10 mM EGTA, 50 mM HEPES (pH 7.2), 1.92 mM MgCl2].
(§4) To prepare the cell lysates, the 100 mm plates containing the cells were placed on ice and washed with ice-cold PBS (phosphate buffered saline, pH 7.4). KHEM buffer (500 μl) was added to the cells. Cells were then scraped off the plate and triturated using a needle (BD Microlance™ 0.8, 40 mm). The lysed cells were then centrifuged at 2000 rpm for 10 minutes to remove cell debris and the supernatant (cell lysate containing recombinant PDE4D5) was transferred to a fresh tube and kept on ice.
(§5) The cell lysate containing recombinant PDE4D5 was transferred into a centrifuge tube and placed into an ultracentrifuge (BECKMAN COULTER) and spun at high speed (100,000 g) for 30 minutes at 4° C. The cytosol fraction was then collected and its protein amount determined using a BCA protein assay.
PDE assays were performed using a final concentration of 10 mM Tris/5 mM MgCl2 and 1 μM [3H]-cAMP (Perkin Elmer) plus PDE4D5 cell lysate cytosol fraction, containing over-expressed PDE4D5, with and without test compound. Incubations were performed at 30° C. for 5 minutes. The samples were then placed in a boiling water bath for 2 minutes to denature the PDE enzyme, and returned to ice. Samples were allowed to cool for 1.0 min after which snake venom 5′-nucleotidase (25 μl, 1 mg/ml; Sigma) was added. The tubes were vortexed and incubated in a water bath at 30° C. for 10 minutes, to attain conversion of [3H]-5′-AMP to [3H]-adenosine, and then placed on ice. Dowex ion exchange resin (Sigma) prepared as a 1:1 Dowex:water stock was thoroughly re-suspended and diluted 2:1 with ethanol. The resulting Dowex suspension (0.4 ml) was added to each tube. Tubes were vortexed to mix and then incubated on ice for at least 15 minutes before a final vortex. The Dowex resin was pelleted by centrifugation at 13,000 g at 4° C. for 3 minutes and 150 μl of the supernatant was removed to an Eppendorf tube containing 1 ml of ScintiSafe3 scintillation fluid (Fisher). Tubes were vortexed thoroughly to mix and the recovered [3H]-adenosine was quantified by measuring counts over 1 minute in a scintillation counter.

[1] = molecular target: T2, full length human PDE4B2 short isoform (Homo sapiens, UniProt Q07343); experiment: PDE4 radio-assay, PDE4B2 short form (Experiment 1); assay type: biochemical; settings: method of Experiment 1; FIG. 4
T2 construct: the full length human PDE4B2 short isoform; made in house; cytosol fraction of the lysate
Description: as §1, §2, §3, §4, §5
PDE assays were performed using a final concentration of 10 mM Tris/5 mM MgCl2 and 1 μM [3H]-cAMP (Perkin Elmer) plus PDE4D5 cell lysate cytosol fraction, containing over-expressed PDE4D5, with and without test compound. Incubations were performed at 30° C. for 5 minutes. […] Tubes were vortexed thoroughly to mix and the recovered [3H]-adenosine was quantified by measuring counts over 1 minute in a scintillation counter.

MDCK cells = experiment: Reduction of intracellular cAMP levels in forskolin stimulated MDCK cells (Experiment 2); assay type: cell-based, canine; settings: 10 μM compound for 10 min prior to forskolin (10 μM) for 2 min; FIG. 6
Description: HEK 293 and MDCK cells (Public Health England, Cell Culture Collections) were maintained in DMEM supplemented with 10% (v/v) fetal bovine serum (Seralab), 2 mM L-glutamine, 1,000 U penicillin and 1,000 μg streptomycin (Life Technologies); termed complete media. Clonal HEK 293 cell lines were maintained in complete media supplemented with 0.6 mg/mL G418 (Enzo Life Sciences).
HEK 293 or MDCK cells were seeded at 100,000 cells per well, and left to adhere overnight. The cells were then treated with the compound indicated (10 μM) for 10 minutes, prior to stimulation with forskolin (10 μM, Sigma) for 2 minutes. Media was aspirated, and hydrochloric acid (0.1M) was added to lyse the cells. The cAMP assay (Enzo Life Sciences) was performed according to the manufacturers instructions.

T2 sequence (Q07343 1-564 isoform Q07343-2): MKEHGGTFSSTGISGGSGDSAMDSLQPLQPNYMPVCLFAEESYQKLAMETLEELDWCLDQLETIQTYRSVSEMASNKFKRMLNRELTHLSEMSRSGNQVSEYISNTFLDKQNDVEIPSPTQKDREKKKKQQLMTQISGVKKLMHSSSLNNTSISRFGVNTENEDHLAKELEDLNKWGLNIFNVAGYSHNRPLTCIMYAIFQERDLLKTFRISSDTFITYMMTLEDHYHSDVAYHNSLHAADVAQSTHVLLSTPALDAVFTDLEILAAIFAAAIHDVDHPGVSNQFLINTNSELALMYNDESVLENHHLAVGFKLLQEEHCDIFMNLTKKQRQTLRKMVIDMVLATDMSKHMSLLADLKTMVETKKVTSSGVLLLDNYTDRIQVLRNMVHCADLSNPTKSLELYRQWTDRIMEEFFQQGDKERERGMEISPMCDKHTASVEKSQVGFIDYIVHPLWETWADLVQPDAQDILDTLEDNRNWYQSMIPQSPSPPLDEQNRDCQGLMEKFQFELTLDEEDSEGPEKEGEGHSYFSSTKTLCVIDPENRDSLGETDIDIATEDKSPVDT
T1 sequence (Q08499 1-745 isoform Q08499-6): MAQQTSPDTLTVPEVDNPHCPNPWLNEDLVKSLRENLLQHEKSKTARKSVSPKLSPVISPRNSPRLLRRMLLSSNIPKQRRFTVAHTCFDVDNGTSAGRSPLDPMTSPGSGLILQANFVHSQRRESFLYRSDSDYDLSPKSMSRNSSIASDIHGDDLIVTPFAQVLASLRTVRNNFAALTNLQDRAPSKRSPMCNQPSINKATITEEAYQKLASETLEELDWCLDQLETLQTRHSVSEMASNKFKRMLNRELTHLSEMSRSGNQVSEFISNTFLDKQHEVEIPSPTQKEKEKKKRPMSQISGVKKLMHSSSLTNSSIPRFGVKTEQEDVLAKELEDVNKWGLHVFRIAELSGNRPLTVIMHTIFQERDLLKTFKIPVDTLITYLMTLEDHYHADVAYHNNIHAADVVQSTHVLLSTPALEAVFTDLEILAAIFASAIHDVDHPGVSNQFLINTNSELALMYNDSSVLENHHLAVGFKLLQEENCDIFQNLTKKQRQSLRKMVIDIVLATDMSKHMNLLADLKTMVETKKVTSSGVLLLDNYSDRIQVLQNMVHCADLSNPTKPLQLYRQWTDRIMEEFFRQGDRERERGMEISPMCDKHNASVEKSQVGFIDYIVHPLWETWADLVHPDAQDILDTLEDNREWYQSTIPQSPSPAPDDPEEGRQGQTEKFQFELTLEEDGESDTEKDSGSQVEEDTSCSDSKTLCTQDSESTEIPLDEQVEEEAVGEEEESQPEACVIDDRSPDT

| SMILES | activation at 50 µM (full-length human PDE4D5) [%] | activation at 1 µM (full-length human PDE4D5) [%] | activation at 3 µM (full-length human PDE4D5) [%] | activation at 10 µM (full-length human PDE4D5) [%] | activation at 30 µM (full-length human PDE4D5) [%] | activation of PDE4B2, a short form of PDE4 (in words) [1] | intracellular cAMP levels in MDCK cells (in words) (MDCK cells) |
| --- | --- | --- | --- | --- | --- | --- | --- |
| CCc1nc(-c2ccc(Cl)c(F)c2)nn1CC(=O)NCc1ccc(F)cc1 [Example K, N-(4-Fluorobenzyl)-2-[3-(4-chloro-3-fluorophenyl)-5-ethyl-1H-1,2,4-triazol-1-yl]acetamide] | 80.5 | – | – | – | – | – | – |
| COCc1nc(-c2ccc(OC(F)(F)F)cc2)nn1CC(=O)NCc1cccc(F)c1 [Example D, N-(3-Fluorobenzyl)-2-{3-[4-(trifluoromethoxy)phenyl]-5-methoxymethyl-1H-1,2,4-triazol-1-yl}acetamide] | 196 | 52.6 | 30.6 | 51.6 | 126 | lack of activation | reduction in intracellular cAMP levels |
| CCc1nc(-c2ccc(Cl)c(F)c2)nn1CC(=O)NCc1ccccc1F [Example J, N-(2-Fluorobenzyl)-2-[3-(4-chloro-3-fluorophenyl)-5-ethyl-1H-1,2,4-triazol-1-yl]acetamide] | 82.2 | – | – | – | – | – | – |
| CCc1nc(-c2ccc(Cl)c(F)c2)nn1CC(=O)NCc1cccc(Cl)c1 [Example E, N-(3-Chlorobenzyl)-2-[3-(4-chloro-3-fluorophenyl)-5-ethyl-1H-1,2,4-triazol-1-yl]acetamide] | 71.1 | – | – | – | – | – | – |
| COCc1nc(-c2ccc(Cl)cc2)nn1CC(=O)NCc1ccccc1 [Example B, N-Benzyl-2-[3-(4-chlorophenyl)-5-methoxymethyl-1H-1,2,4-triazol-1-yl]acetamide] | 114 | 7.2 | 0.4 | 21.9 | 64.6 | lack of activation | – |
| CCc1nc(-c2ccc(Cl)c(F)c2)nn1CC(=O)NCc1cccc(C#N)c1 [Example F, N-(3-Cyanobenzyl)-2-[3-(4-chloro-3-fluorophenyl)-5-ethyl-1H-1,2,4-triazol-1-yl]acetamide] | 107 | – | – | – | – | – | – |
| CCc1nc(-c2ccc(Cl)c(F)c2)nn1CC(=O)NCc1cccc(OC(F)(F)F)c1 [Example I, N-[3-(Trifluoromethoxy)benzyl]-2-[3-(4-chloro-3-fluorophenyl)-5-ethyl-1H-1,2,4-triazol-1-yl]acetamide] | 92.1 | – | – | – | – | – | – |
| CCc1nc(-c2ccc(Cl)c(F)c2)nn1CC(=O)NCc1cccc(OC)c1 [Example H, N-(3-Methoxybenzyl)-2-[3-(4-chloro-3-fluorophenyl)-5-ethyl-1H-1,2,4-triazol-1-yl]acetamide] | 136 | – | – | – | – | – | – |
| CCc1nc(-c2ccc(Cl)c(F)c2)nn1CC(=O)NCc1cccc(C(F)(F)F)c1 [Example G, N-[3-(Trifluoromethyl)benzyl]-2-[3-(4-chloro-3-fluorophenyl)-5-ethyl-1H-1,2,4-triazol-1-yl]acetamide] | 171 | – | – | – | – | – | – |
| CCc1nc(-c2ccc(Cl)c(F)c2)nn1CC(=O)NCc1ccc(OC)c(OC)c1 [Example L, N-(3,4-Dimethoxybenzyl)-2-[3-(4-chloro-3-fluorophenyl)-5-ethyl-1H-1,2,4-triazol-1-yl]acetamide] | 251 | 26 | 42.4 | 79.8 | 214 | lack of activation | – |
| Cc1nc(-c2ccc(Cl)cc2)nn1CC(=O)NCc1ccccc1 [Example C, N-Benzyl-2-[3-(4-chlorophenyl)-5-methyl-1H-1,2,4-triazol-1-yl]acetamide] | 119 | – | – | – | – | – | reduction in intracellular cAMP levels |
